Results reported in paper PMC12603982 (Angewandte Chemie (International Ed. in English), 2025).
Like-named read-outs stand apart in the source and are kept apart here. Values belong to the molecule of their own block, whether it stands above or below them. Starred links: 1 amine or outer side, 2 acyl side, 3 side chain; linkers in the order of their positions; H or OH if unused. Positions of bridges follow the written chain, without caps; N, C: chain ends. Non-standard residues stand in square brackets, D forms with d. Residues, ends and D or L forms follow the SMILES beside them. Groups on a side chain read outwards from the residue. *: point of attachment. X3 = CCN1C(=CC=CC=CC2=[N+](CCCCCC(=O)*)c3ccc(S(=O)(=O)[O-])cc3C2(C)C)C(C)(C)c2cc(S(=O)(=O)O)ccc21; X1 = CCN1C(=CC=CC2=[N+](CCCCCC(=O)*)c3ccc(S(=O)(=O)O)cc3C2(C)C)C(C)(C)c2cc(S(=O)(=O)[O-])ccc21; X4 = CCN1C(=CC=CC2=[N+](CCCCCC(=O)*)c3ccc(S(=O)(=O)[O-])cc3C2(C)C)C(C)(C)c2cc(S(=O)(=O)O)ccc21; d(εLys) = N[C@H](CCCCN[*:1])C(=O)[*:2]; PEG5 = NCCOCCOCCOCCOCCOCCC(=O)O; Orn = NCCC[C@H](N)C(=O)O; Mpa = O=C(O)CCS

Columns and labels:
hOTR-GFP in HEK293 cells [1] = target: T1, hOTR-GFP in HEK293 cells (Homo sapiens, UniProt P30559); experiment: hOTR-GFP internalization and tracer uptake, confocal microscopy after fixation/ICC; type: cell-based; set-up: expressed in transfected cells; details: for hOTR-GFP internalization / Tracer retention after ICC protocols: 100 nM; for Tracer retention after ICC protocols: 1 h stimulation, formaldehyde fixation, PBS washing; for Tracer signal after prolonged stimulation: 24 h treatment, post-fixation ICC
T1 sequence (P30559 1-389): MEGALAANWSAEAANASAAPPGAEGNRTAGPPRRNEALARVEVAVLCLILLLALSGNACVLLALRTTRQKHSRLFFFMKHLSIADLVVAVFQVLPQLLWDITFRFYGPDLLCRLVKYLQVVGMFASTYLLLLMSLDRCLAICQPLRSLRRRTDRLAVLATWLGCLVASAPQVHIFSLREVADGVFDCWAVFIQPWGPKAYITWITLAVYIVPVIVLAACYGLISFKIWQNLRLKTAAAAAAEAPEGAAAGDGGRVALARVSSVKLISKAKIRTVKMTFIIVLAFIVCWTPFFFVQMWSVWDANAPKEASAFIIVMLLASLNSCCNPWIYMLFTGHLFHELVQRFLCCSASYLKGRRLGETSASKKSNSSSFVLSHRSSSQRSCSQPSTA
Description: To validate the application scope of our tracers for biological systems and post‐hoc imaging, we used HEK293 cells stably overexpressing human OTR or V1aR, tagged with a C‐terminal fused green fluorescent protein to visualize receptor trafficking (hOTR‐GFP or hV1aR‐GFP, respectively).
subsequently washed with PBS and processed for immunocytochemistry.
Immunocytochemistry and imaging. Unspecific protein binding was quenched with 5% normal donkey serum
(Jackson ImmunoResearch), 2% bovine serum albumin (Sigma-Aldrich, Merck), and 0.2% Triton X-100 (Sigma-
Aldrich, Merck) in PBS. Next, cells were exposed to primary antibody cocktails containing FITC-conjugated goat-
anti-GF (1:2000, Sigma-Aldrich, Merck) and mouse pCREB (1:300, Sigma-Aldrich, Merck) in PBS with 2%
normal donkey serum, 0.1% BSA, and 0.2% Triton X-100 overnight at 4°C. After three PBS washing steps, wells
were incubated with secondary antibody cocktails (1:400, Jackson Immuno Research) containing suitable
were mounted with glycerol gelatin (Sigma-Aldrich, Merck) and imaged on a Zeiss LSM 780/880 confocal
microscope (Zeiss). Images were analyzed and equally contrasted for visualization with ZEN Pro (Zeiss) and

hOTR [2] = target: T2, hOTR (Homo sapiens, UniProt P30559); experiment: Radioligand displacement and saturation binding, membranes of HEK293 cells stably expressing hOTR, [3H]-OT; details: [3H]-OT, mean ± SD, duplicates, at least three independent experiments
T2 construct: expressed in transfected cells
T2 sequence (P30559 1-389): T1 sequence (P30559 1-389)
Protocol: (§1) Membrane preparation for radioligand assays. HEK293 cells were used for stable expression of GFP-tagged
(§2) human OTR, V1aR, V1bR, and V2R isoforms and transient expression of murine OTR, V1aR, V1bR, and V2R
(§3) isoforms. Cell culture work was performed under sterile conditions with DMEM high glucose containing 10%
(§4) FBS, and 50 U/mL P/S. Cells were cultured in 10 cm diameter cell culture dishes at 37°C in a humidified
(§5) atmosphere with 5% CO2, and cells were passaged at 70-90% confluency.
(§6) medium of stable cell lines at 0.5 mg/mL to sustain selection pressure, and cells were harvested at 90% confluency
(§7) for membrane preparation. For transient expression of murine receptors, 60% confluent wild-type HEK293 cells
(§8) were transfected using the jetPRIME transfection reagent according to the manufacturer’s protocol and harvested
(§9) 48 h post-transfection. For membrane preparation, cells were washed with ice-cold PBS pH 7.4, scraped into fresh
(§10) PBS on ice, and centrifuged at 4°C and 178 g for 10 min. The pellet was resuspended in a TRIS buffer solution
ice-cold water bath sonicator. The obtained solution was centrifuged for 20 min at 54,192 g and 4°C. The obtained
pellet was resuspended in TRIS buffer without protease inhibitors, homogenized with an ultrasonicator, aliquoted,
and stored at -80°C until further use. A BCA assay was used to determine the protein concentration of the
Radioligand displacement and saturation experiments. Assay solutions consisting of competing ligand,
radioligand, and membrane preparation were incubated for 1 h at 37°C. Standard binding buffer solution (50 mM
TRIS, 5 mM MgCl2, 0.1% BSA, pH 7.4) was used to prepare all dilutions; the final assay volume was 200 µL.
concentrations were 8 μg/vial for hOTR, 5 μg/vial for hV1aR, and 3 μg/vial for hV1bR and hV2R, respectively , and
4 μg/vial for mOTR, 1.5 μg/vial for m V1aR, 3 μg/vial for mV 1bR, and 10 μg/vial for mV 2R. To assess non-specific
Specific binding was determined by
subtraction of the non-specific binding from the total binding. In radioligand displacement experiments, semi -
logarithmically spaced concentrations of respective test ligands were applied to determine K i values based on
assessed Kd values of radiotracers and by fitting the data to a three -parameter logistic Hill equation and applying
the Cheng and Prusoff approximation. 10 In case of human receptors from stable cell lines, Kd and Bmax values were
In case of murine receptors from transient
was performed using GraphPad Prism (version 9.5.1) . After incubation, membranes were filtered and washed on
a Skatron Cell Harvester using polyethyleneimine -coated glass fiber filters (type B, soaked in 0.1% aqueous
1 mM MgCl2, pH 7.4, 4°C). The soaked filter pieces were transferred into counter vials, and 2 mL of scintillation
cocktail (LSC Universalcocktail) was added to each vial. After 1 h incubation at 25°C on a shaker, radioligand
concentration was determined using a Tri -Carb liquid scintillation analyzer.
response curves were obtained from radioligand displacement experiments of membrane preparations of HEK293
Values were normalized to the percentage
of maximum binding (i.e., no competing ligand present). Specific binding was obtained from the subtraction of
non-specific binding from total binding. K i values were derived from one-site-fitted competition binding curves.

[3] = system: CREB phosphorylation via hOTR-GFP; experiment: In vitro phosphorylation assay (pCREB) in hOTR-GFP HEK293 cells; type: cell-based, human; details: range 1 nM to 1 µM
[4] = system: parent HEK293 cells lacking hOTR; details: 100 nM
[5] = target: hV1aR-GFP in HEK293 cells (Homo sapiens, UniProt P37288); experiment: Tracer signal and internalization in hV1aR-GFP HEK293 cells post ICC; details: 100 nM
Chain of hV1aR-GFP in HEK293 cells (P37288 whole entry): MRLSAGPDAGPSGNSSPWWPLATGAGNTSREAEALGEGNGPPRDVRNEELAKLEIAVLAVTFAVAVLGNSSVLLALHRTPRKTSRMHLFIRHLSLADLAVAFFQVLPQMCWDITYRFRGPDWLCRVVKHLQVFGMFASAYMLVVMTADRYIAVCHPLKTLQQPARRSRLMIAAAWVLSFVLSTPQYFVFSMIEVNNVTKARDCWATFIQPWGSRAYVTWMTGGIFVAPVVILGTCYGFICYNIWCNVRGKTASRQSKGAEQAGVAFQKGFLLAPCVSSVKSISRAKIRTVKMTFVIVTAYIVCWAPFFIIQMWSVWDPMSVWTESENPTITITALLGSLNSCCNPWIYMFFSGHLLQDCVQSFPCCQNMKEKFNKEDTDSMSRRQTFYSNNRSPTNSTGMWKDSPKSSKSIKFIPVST

hOTR-GFP in HEK293 cells [6] = target: T1, hOTR-GFP in HEK293 cells; experiment: Live single-particle tracking (TIRFM, uPAINT) of hOTR
Protocol: We first exposed hOTR‐GFP cells to 10 and 100 nM of tracer (11) during acquisition with a ZEISS Lattice SIM microscope (Movies S1 and S2). […] To further disentangle the dynamics of our tracer‐mediated OTR engagement and trafficking, we evaluated its applicability in single‐particle tracking (SPT) in living cells. We cultured HEK293 (parent cells) and HEK293 cells stably expressing hOTR‐GFP (HEK293‐hOTR‐GFP) and performed total internal reflection microscopy (TIRFM) SPT universal point accumulation imaging in nanoscale topography (uPAINT) following the addition of 1 nM of tracer (10). […] This concentration was selected to facilitate the detection and tracking of single molecules of the fluorescent agonist tracer following binding to hOTR at the plasma membrane by uPAINT. […] We first assessed the number of tracks (indicative of the number of single molecules detected/tracked). […] We quantified the mean squared displacement of each trajectory to calculate its apparent diffusion coefficient. The diffusion coefficient of each trajectory of the tracer bound to hOTR was plotted as a frequency distribution (Figure 7b2 ).
Live cell imaging. For 3D live cell imaging, attached and serum -starved HEK293-hOTR-GFP cells in 96-well
glass bottom plates were imaged on a ZEISS Lattice SIM Microscope using a 40x oil objective and SIM 2 post- […]

hOTR [7] = target: T2, hOTR; set-up: method as in PMID 8126695; details: cited from earlier work
hV1aR = target: T3, hV1aR (Homo sapiens, UniProt P37288); experiment: Radioligand displacement and saturation binding, membranes of HEK293 cells stably expressing hV1aR, [3H]-VP
T3 construct: expressed in transfected cells
T3 sequence (P37288 whole entry): as above
Protocol: as §1, §2, §3, §4, §5, §6, §7, §8, §9, §10
(§11) ice-cold water bath sonicator. The obtained solution was centrifuged for 20 min at 54,192 g and 4°C. The obtained […]
Specific binding was determined by […]
(§12) assessed Kd values of radiotracers and by fitting the data to a three -parameter logistic Hill equation and applying […]
(§13) concentration was determined using a Tri -Carb liquid scintillation analyzer. […]

hV1bR = target: T4, hV1bR (Homo sapiens, UniProt P47901); experiment: Radioligand displacement and saturation binding, membranes of HEK293 cells stably expressing hV1bR, [3H]-VP
T4 construct: expressed in transfected cells; membrane preparation
T4 sequence (P47901 1-424): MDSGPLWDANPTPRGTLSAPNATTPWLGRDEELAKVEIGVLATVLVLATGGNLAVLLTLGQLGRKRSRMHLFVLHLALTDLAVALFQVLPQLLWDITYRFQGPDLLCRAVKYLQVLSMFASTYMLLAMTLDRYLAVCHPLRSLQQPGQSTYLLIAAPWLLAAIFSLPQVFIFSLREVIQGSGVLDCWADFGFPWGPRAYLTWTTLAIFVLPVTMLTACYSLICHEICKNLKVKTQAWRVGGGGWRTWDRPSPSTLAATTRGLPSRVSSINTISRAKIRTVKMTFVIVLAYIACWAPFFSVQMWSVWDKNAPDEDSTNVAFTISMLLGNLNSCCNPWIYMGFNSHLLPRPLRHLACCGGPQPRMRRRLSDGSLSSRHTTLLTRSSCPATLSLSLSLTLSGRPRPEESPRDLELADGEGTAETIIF
Protocol: as §1, §2, §3, §4, §5, §6, §7, §8, §9, §10, §11
Specific binding was determined by […]
as §12, §13

hV2R = target: T5, hV2R (Homo sapiens, UniProt P30518); experiment: Radioligand displacement and saturation binding, membranes of HEK293 cells stably expressing hV2R, [3H]-VP
T5 construct: expressed in transfected cells; membrane preparation
T5 sequence (P30518 whole entry): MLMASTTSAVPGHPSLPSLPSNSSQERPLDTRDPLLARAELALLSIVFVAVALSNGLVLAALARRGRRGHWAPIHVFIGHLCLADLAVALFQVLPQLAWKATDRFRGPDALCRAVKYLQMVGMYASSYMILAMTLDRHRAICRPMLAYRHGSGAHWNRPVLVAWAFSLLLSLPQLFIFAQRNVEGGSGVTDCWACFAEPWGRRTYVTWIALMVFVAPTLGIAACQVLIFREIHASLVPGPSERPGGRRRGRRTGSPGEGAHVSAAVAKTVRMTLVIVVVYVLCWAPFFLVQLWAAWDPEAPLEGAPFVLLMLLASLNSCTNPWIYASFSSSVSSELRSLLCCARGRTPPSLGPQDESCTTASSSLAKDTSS
Protocol: as §1, §2, §3, §4, §5, §6, §7, §8, §9, §10, §11
Specific binding was determined by […]
as §12, §13

[8] = system: rat embryonic hippocampal neurons; experiment: Tracer uptake in primary rat hippocampal neurons; type: cell-based; details: 100 nM, 1 h; E17.5 neurons cultured 14 days
Protocol: Finally, we evaluated whether tracer (11) is applicable in primary cells endogenously expressing OTR.
Primary UtSMC and hippocampal neuronal cultures.
Muscle Cell Basal Medium 2 (PromoCell), including supplements (PromoCell) and P/S (Gibco) at 37°C and 5%
CO2. Cells were trypsinized with 0.1% Trypsin/EDTA (Gibco) and plated on glass -bottom 96-well plates (CellVis)
at a density of 10,000 cells/well in full growth medium. The next day, cells were stimulated with tracer ( 11), OTA ,
dissociated with flame -polishe d Pasteur pipettes in Hank’s balanced salt solution (HBSS, Gibco). Tissue pieces
were subsequently enzymatically dissociated with 0.1% Trypsin/EDTA (Gibco) in Neurobasal A (NBA, Gibco)
containing 1,000U/mL DNase (Sigma) for 5 min at 37°C. Cells were triturated with flamed Pasteur pipettes,
filtered through a 40 µm nylon mesh ( Thermo Fisher Scientific ), centrifuged at 200 g for 5 min, and washed up to
three times in NBA containing P/S (Gibco), GlutaMax (Gibco) , and B27 supplement (Gibco). Cells were plated at
20,000 cells/well on PDL -coated (Sigma) glass -bottom black 96 -well microscopy plates (Cellvis) and grown at
37°C with 5% CO 2. Half of the medium was replaced every 3 -4 days. After 13 -14 days in vitro , neuronal cultures
were exposed to 100 nM tracer ( 11) for one hour, with or without 30-min pretreatment with 10 µM of the peptide
antagonist OTA. […]

Compound: CC[C@H](C)[C@@H]1NC(=O)[C@H](Cc2ccc(O)cc2)NC(=O)CCSSC[C@@H](C(=O)N2CCC[C@H]2C(=O)N[C@@H](CCCNC(=O)CCOCCOCCOCCOCCOCCNC(=O)CCCCC[N+]2=C(C=CC=CC=C3N(CC)c4ccc(S(=O)(=O)O)cc4C3(C)C)C(C)(C)c3cc(S(=O)(=O)[O-])ccc32)C(=O)NCC(N)=O)NC(=O)[C@H](CC(N)=O)NC(=O)[C@H](CCC(N)=O)NC1=O [Compound 3, d(Orn)^8OT‐[PEG5‐Cy5s]^8] ([Mpa]YIQNCP[Orn]([PEG5-X3])G-NH2; disulfide 1-6)
hOTR-GFP internalization (hOTR-GFP in HEK293 cells [1]): significant hOTR‐GFP internalization | Tracer retention after ICC protocols (hOTR-GFP in HEK293 cells [1]): washout after ICC protocols | Tracer signal after prolonged stimulation (hOTR-GFP in HEK293 cells [1]): scarcely detectable

Compound: CC[C@H](C)[C@@H]1NC(=O)[C@H](Cc2ccc(O)cc2)NC(=O)CCSSC[C@@H](C(=O)N2CCC[C@H]2C(=O)N[C@@H](CCCNC(=O)CCOCCOCCOCCOCCOCCNC(=O)[C@H](N)CCCCNC(=O)CCCCC[N+]2=C(C=CC=C3N(CC)c4ccc(S(=O)(=O)[O-])cc4C3(C)C)C(C)(C)c3cc(S(=O)(=O)O)ccc32)C(=O)NCC(N)=O)NC(=O)[C@H](CC(N)=O)NC(=O)[C@H](CCC(N)=O)NC1=O [Compound 8, d(Orn)^8OT‐[PEG5‐k^ε‐Cy3s]^8] ([Mpa]YIQNCP[Orn]([PEG5-d(εLys)-X1])G-NH2; disulfide 1-6)
Cy3s signal accumulation in hOTR-expressing cells (hOTR-GFP in HEK293 cells [1]; post ICC, normalized to control): significant concentration‐dependent accumulation | Fluorescent signals and internalization in hV1aR-containing cells [5]: displayed fluorescent signals and internalization

Compound: Cc1ccccc1N1CCN(S(=O)(=O)C[C@]23CC[C@H](C[C@@H]2NC(=O)[C@@H](N)CCS(C)(=O)=O)C3(C)C)CC1 [L368,899, reference compound]
IC50 (hOTR [7]): 26 nM | Effect of antagonist pretreatment on tracer (11) uptake (hOTR-GFP in HEK293 cells [1]; 10 µM, 30 min pretreatment): completely prevented tracer (11) uptake

Compound: CC[C@H](C)[C@@H]1NC(=O)CCSSC[C@@H](C(=O)N2CCC[C@H]2C(=O)N[C@@H](CCCNC(=O)[C@@H](CC(=O)O)NC(=O)CCOCCOCCOCCOCCOCCNC(=O)[C@H](N)CCCCNC(=O)CCCCC[N+]2=C(C=CC=C3N(CC)c4ccc(S(=O)(=O)[O-])cc4C3(C)C)C(C)(C)c3cc(S(=O)(=O)O)ccc32)C(=O)NCC(N)=O)NC(=O)[C@H](CCC(N)=O)NC(=O)[C@H](Cc2ccc(O)cc2)NC(=O)[C@H](CC(N)=O)NC1=O [Scrambled tracer (SCR), dCINYQCP(Orn)G‐[d‐PEG5‐k^ε‐Cy3s]^8] ([Mpa]INYQCP[Orn]([dD-PEG5-d(εLys)-X1])G-NH2; disulfide 1-6)
Ki (hOTR [2]; Ki hOTR): > 10000 nM | Ki (hV1aR): > 10000 nM | Ki (hV1bR): > 10000 nM | Ki (hV2R): > 10000 nM | Tracer uptake in rat hippocampal neurons [8]: not taken up by neurons | hOTR-GFP internalization (hOTR-GFP in HEK293 cells [1]): did not induce hOTR‐GFP internalization or accumulate in the cell cytoplasm

More lines, main results first:

Ki (hOTR [2]; read-out: Ki hOTR): 1.5 ± 0.6 nM
Compound: CC[C@H](C)[C@@H]1NC(=O)[C@H](Cc2ccc(O)cc2)NC(=O)CCSSC[C@@H](C(=O)N2CCC[C@H]2C(=O)N[C@@H](CCCNC(=O)CCOCCOCCOCCOCCOCCNC(=O)CCCCC[N+]2=C(C=CC=C3N(CC)c4ccc(S(=O)(=O)[O-])cc4C3(C)C)C(C)(C)c3cc(S(=O)(=O)O)ccc32)C(=O)NCC(N)=O)NC(=O)[C@H](CC(N)=O)NC(=O)[C@H](CCC(N)=O)NC1=O [Compound 4, d(Orn)^8OT‐[PEG5‐Cy3s]^8] ([Mpa]YIQNCP[Orn]([PEG5-X1])G-NH2; disulfide 1-6)

Concentration from which tracer accumulation and GFP internalization were observed (hOTR-GFP in HEK293 cells [1]; hOTR-GFP HEK293 cells): ≥ 10 nM
Compound: CC[C@H](C)[C@@H]1NC(=O)[C@H](Cc2ccc(O)cc2)NC(=O)CCSSC[C@@H](C(=O)N2CCC[C@H]2C(=O)N[C@@H](CCCNC(=O)[C@H](N)CCCCNC(=O)[C@H](N)CCCCNC(=O)CCCCC[N+]2=C(C=CC=CC=C3N(CC)c4ccc(S(=O)(=O)O)cc4C3(C)C)C(C)(C)c3cc(S(=O)(=O)[O-])ccc32)C(=O)NCC(N)=O)NC(=O)[C@H](CC(N)=O)NC(=O)[C@H](CCC(N)=O)NC1=O [Compound 5] ([Mpa]YIQNCP[Orn]([d(εLys)-d(εLys)-X3])G-NH2; disulfide 1-6)
Concentration from which CREB phosphorylation was observed [3]: ≥ 10 nM | Internalization in parent HEK293 cells [4]: nor was it internalized into the cytoplasm | pCREB induction in parent HEK293 cells [4]: did not affect pCREB induction

hOTR-GFP internalization (hOTR-GFP in HEK293 cells [1]): significant hOTR‐GFP internalization | Tracer retention after ICC protocols (hOTR-GFP in HEK293 cells [1]): remained present and detectable | Tracer signal after prolonged stimulation (hOTR-GFP in HEK293 cells [1]): Signal intensity was increased
Compound: CC[C@H](C)[C@@H]1NC(=O)[C@H](Cc2ccc(O)cc2)NC(=O)CCSSC[C@@H](C(=O)N2CCC[C@H]2C(=O)N[C@@H](CCCNC(=O)CCOCCOCCOCCOCCOCCNC(=O)[C@H](N)CCCCNC(=O)CCCCC[N+]2=C(C=CC=CC=C3N(CC)c4ccc(S(=O)(=O)O)cc4C3(C)C)C(C)(C)c3cc(S(=O)(=O)[O-])ccc32)C(=O)NCC(N)=O)NC(=O)[C@H](CC(N)=O)NC(=O)[C@H](CCC(N)=O)NC1=O [Compound 7, d(Orn)^8OT‐[PEG5‐k^ε‐Cy5s]^8] ([Mpa]YIQNCP[Orn]([PEG5-d(εLys)-X3])G-NH2; disulfide 1-6)

Ki (hOTR [2]; read-out: Ki hOTR): 1.5 ± 0.5 nM
Compound: CC[C@H](C)[C@@H]1NC(=O)[C@H](Cc2ccc(O)cc2)NC(=O)CCSSC[C@@H](C(=O)N2CCC[C@H]2C(=O)N[C@@H](CCCNC(=O)CCOCCOCCOCCOCCOCCNC(=O)CCOCCOCCOCCOCCOCCNC(=O)[C@H](N)CCCCNC(=O)CCCCC[N+]2=C(C=CC=C3N(CC)c4ccc(S(=O)(=O)O)cc4C3(C)C)C(C)(C)c3cc(S(=O)(=O)[O-])ccc32)C(=O)NCC(N)=O)NC(=O)[C@H](CC(N)=O)NC(=O)[C@H](CCC(N)=O)NC1=O [Compound 9, d(Orn)^8OT‐[PEG5‐PEG5‐k^ε‐Cy3s]^8] ([Mpa]YIQNCP[Orn]([PEG5-PEG5-d(εLys)-X4])G-NH2; disulfide 1-6)

Average (apparent) diffusion coefficient (hOTR-GFP in HEK293 cells [6]; 1 nM tracer, HEK293-hOTR-GFP, 50 Hz, tracer bound to hOTR, mean ± SEM): 0.206 ± 0.017 µm^2 s^−1 | Average number of tracks (per cell) (hOTR-GFP in HEK293 cells [6]; HEK293-hOTR-GFP cells, N=9 cells, 3 independent experiments): 4884 ± 1718
Compound: CC[C@H](C)[C@@H]1NC(=O)[C@H](Cc2ccc(O)cc2)NC(=O)CCSSC[C@@H](C(=O)N2CCC[C@H]2C(=O)N[C@@H](CCCNC(=O)[C@@H](CC(=O)O)NC(=O)CCOCCOCCOCCOCCOCCNC(=O)CCCCC[N+]2=C(C=CC=CC=C3N(CC)c4ccc(S(=O)(=O)O)cc4C3(C)C)C(C)(C)c3cc(S(=O)(=O)[O-])ccc32)C(=O)NCC(N)=O)NC(=O)[C@H](CC(N)=O)NC(=O)[C@H](CCC(N)=O)NC1=O [Compound 10, d(Orn)^8OT‐[d‐PEG5‐Cy5s]^8] ([Mpa]YIQNCP[Orn]([dD-PEG5-X3])G-NH2; disulfide 1-6)
